This note sets out measurements from publication PMC5404925, “Variation in olfactory neuron repertoires is genetically controlled and environmentally modulated” (eLife, 2017).

One assay addresses T1, Olfr538 (Mus musculus, UniProt Q7TRT5).
T1 construct: gene Or13a24; full-length OR, probably N-terminal RHO tag (tag-only control), in HEK293T-derived Hana3A cells with RTP1S and M3-R
T1 sequence (Q7TRT5 1-310): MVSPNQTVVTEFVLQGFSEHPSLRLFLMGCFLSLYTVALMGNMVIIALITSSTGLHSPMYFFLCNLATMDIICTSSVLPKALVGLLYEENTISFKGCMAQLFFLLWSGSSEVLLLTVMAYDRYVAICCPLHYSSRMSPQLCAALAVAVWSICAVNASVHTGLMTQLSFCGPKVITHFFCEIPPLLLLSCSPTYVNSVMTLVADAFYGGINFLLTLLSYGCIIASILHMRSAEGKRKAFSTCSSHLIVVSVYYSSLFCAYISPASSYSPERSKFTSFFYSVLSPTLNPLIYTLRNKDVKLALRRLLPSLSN
As to the kind of experiment: CRE-luciferase reporter dose-response (Dual-Glo). Particulars: agonist; 1 nM to 1 mM, 4 h stimulation; RTP1S and M3-R co-expressed; Hana3A cells. In kind it is cell-based.

A further assay addresses T2, Olfr347 (Mus musculus, UniProt Q8VGK2).
T2 construct: gene Or1j18; full-length OR, probably N-terminal RHO tag (tag-only control), in HEK293T-derived Hana3A cells with RTP1S and M3-R
T2 sequence (Q8VGK2 1-312): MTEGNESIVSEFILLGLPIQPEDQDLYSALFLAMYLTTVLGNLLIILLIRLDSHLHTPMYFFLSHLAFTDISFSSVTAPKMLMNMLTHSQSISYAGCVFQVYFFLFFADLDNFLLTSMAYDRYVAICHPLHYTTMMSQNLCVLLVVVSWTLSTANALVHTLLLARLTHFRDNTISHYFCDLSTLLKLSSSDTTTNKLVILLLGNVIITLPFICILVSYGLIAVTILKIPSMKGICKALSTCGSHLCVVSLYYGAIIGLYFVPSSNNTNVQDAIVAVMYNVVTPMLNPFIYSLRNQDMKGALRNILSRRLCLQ
As to the kind of experiment: CRE-luciferase reporter dose-response (Dual-Glo). The class given is cell-based. To be noted: agonist; 1 nM to 1 mM, 4 h stimulation; RTP1S and M3-R co-expressed; Hana3A cells.

For `C=C(C)[C@@H]1CC=C(C)C(=O)C1` [(R)-carvone], the “CRE-luciferase reporter dose-response (Dual-Glo)” value is listed as “Olfr538 displayed a dose-dependent response to (R)-carvone” at Olfr538 and “Dose-response curve for HEK293 cells expressing Olfr347 (black) challenged with increasing concentrations of (R)-carvone” on Olfr347.
